Test results published in patent US20110045477A1, “HUMAN SKIN EXPLANT CULTURE SYSTEM AND USE THEREFOR” (priority 2009, published 2011).

Experiments:
[1] = tested on: subcutaneous adipose layer of skin explants; test: Lipogenesis: triglyceride synthesis from C-14 acetate in subcutaneous fat of skin explants (HPTLC); format: cell-based, human; settings: 20 μM in medium, untreated control 100%
Protocol: (§1) To examine the metabolic activity of the subcutaneous adipose layer, explant cultures were established as described in Example 1, using optimized media with 5% serum. After overnight incubation, skin explants remained untreated or were treated with 20 μM of rosiglitazone or with 50 μM of conjugated linoleic acid in the media, for the evaluation of their effect on lipogenesis and lipolysis of subcutaneous adipose layer. Explants were incubated at 37° C. in a 5% CO2 atmosphere.
For assessing lipogenesis, skin explants were cultured in medium containing 20 μM of rosiglitazone and C-14 labeled acetate for 24 hours. Subcutaneous fat was then harvested, and the levels of triglyceride were determined by HPTLC as described in (Pappas et al., JID 118 (1) 164-171, 2002).

[2] = tested on: human skin explants; test: Ki67 immunohistochemistry (cell proliferation marker) in skin explants; format: cell-based; settings: 20 ng/ml in Medium 1, 37° C., grade 1-5, 5 = normal level prior to culture
Protocol: (§2) Skin explant cultures were established as described in Example 1, using Medium 1. Explants were incubated at 37° C. in a 5% CO2 atmosphere. Skin explants either remained untreated or were treated, in Medium 1, with TGF-β, an agent known to increase elastin production. Media were refreshed daily. After predetermined time periods, the skin explants were harvested, and processed for histological, immunohistochemical, and gene expression evaluation as follows. • 1. LUNA staining was used to document elastin fibers histologically, as described in Kligman, Am. J. of Dermatopathology, 3(2): 199-201, 1981. The grading of elastin fiber quality ranged from 1-5, when 5 represented best fiber quality. • 2. Ki67 was used as a marker for cell proliferation, using immunohistochemistry techniques with a rabbit monoclonal antibody for Ki67, purchased from Thermo Scientific (Pittsburgh, Pa.). Immunohistochemistry staining was performed according to manufacturer's instructions. The grading of Ki67 ranged from 1-5, when 5 represented normal Ki67 level in the skin sample prior to culture. • 3. Levels of elastin gene expression (mRNA levels) were evaluated by QPCR. Total RNA was extracted from skin explants using Trizol (Invitrogen, Carlsbad Calif.) according to manufacturer's instructions. […]

[3] = tested on: human skin explants; test: LUNA staining of elastin fibers in skin explants; format: cell-based; settings: 20 ng/ml in Medium 1, 37° C., grade 1-5, 5 = best fiber quality
Protocol: as §2

[4] = tested on: elastin gene expression; test: Elastin gene expression (mRNA) by QPCR in skin explants; format: cell-based, human; settings: 20 ng/ml
Protocol: as §2

[5] = tested on: subcutaneous adipose layer of skin explants; test: Lipolysis: glycerol released into culture media of skin explants; format: cell-based, human; settings: 50 μM in medium, untreated control 100%
Protocol: as §1
For evaluating lipolysis, skin explants were cultured in medium containing 50 μM of conjugated linoleic acid, and culture media were collected at indicated time points. The levels of glycerol released into the media were determined using the free glycerol reagent and kit (Sigma), which was used according to manufacture instruction.

CN(CCOc1ccc(CC2SC(=O)NC2=O)cc1)c1ccccn1 (centres unmarked) [Rosiglitazone, rosiglitazone]
Triglyceride synthesis at 24 hr (lipogenesis) [1]: 240-270%

TGF-β
Ki67 Proliferation marker (grade) ([2]; Day 5): 4
Ki67 Proliferation marker (grade) ([2]; Day 7): 4
LUNA staining Elastin fibers (grade) ([3]; Day 5): 3
LUNA staining Elastin fibers (grade) ([3]; Day 7): 4
Elastin mRNA (QPCR) ([4]; Day 5, untreated control normalized to 100%): 369%
Elastin mRNA (QPCR) ([4]; Day 7, untreated control Day 5 = 100% (Day 7 control 243%)): 423%

conjugated linoleic acid
Glyceral release at day 3 (lipolysis) [5]: 140%
